In PubChem BioAssay (NCI):
Several values for one entry are separate records, joined by “and”; a condition that tells them apart may be missing. Identical values can stand only once.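 Briefly, cells in 96-well plates were exposed to five compound concentrations for 48 h, and endpoints were estimated by linear interpolation. GI50 marks 50% less growth. Definition used: TGI = concentration required for complete inhibition of growth.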

Tests used:
Test in all cases: DTP human tumour cell line panel, 48 h
SK-OV-3 ovarian = system: SK-OV-3 ovarian
OVCAR-5 ovarian = system: OVCAR-5 ovarian
OVCAR-4 ovarian = system: OVCAR-4 ovarian
SR leukemia = system: SR leukemia
CCRF-CEM leukemia = system: CCRF-CEM leukemia
UACC-62 melanoma = system: UACC-62 melanoma
SK-MEL-5 melanoma = system: SK-MEL-5 melanoma
MDA-MB-231 breast = system: MDA-MB-231 breast
NCI/ADR-RES ovarian = system: NCI/ADR-RES ovarian
TK-10 renal = system: TK-10 renal

Structure (SMILES) | TGI (SK-OV-3 ovarian) | TGI (OVCAR-5 ovarian) | TGI (OVCAR-4 ovarian) | TGI (SR leukemia) | TGI (CCRF-CEM leukemia) | TGI (UACC-62 melanoma) | TGI (SK-MEL-5 melanoma) | TGI (MDA-MB-231 breast) | TGI (NCI/ADR-RES ovarian) | GI50 (SK-OV-3 ovarian) | GI50 (OVCAR-5 ovarian) | GI50 (OVCAR-4 ovarian) | GI50 (SR leukemia) | GI50 (CCRF-CEM leukemia) | GI50 (UACC-62 melanoma) | GI50 (SK-MEL-5 melanoma) | GI50 (TK-10 renal) | TGI (TK-10 renal) | GI50 (MDA-MB-231 breast) | GI50 (NCI/ADR-RES ovarian)
O=C(CP(=O)(O)O)NC(CC(=O)OCc1ccccc1)C(=O)OCc1ccccc1 (stereo not given) | > 100 µM | > 100 µM | > 100 µM | > 100 µM | > 100 µM | > 100 µM | > 100 µM | > 100 µM | > 100 µM |  |  |  |  |  |  |  |  |  |  | 
COC(=O)[C@@H](C)C[C@H](Cc1ccccc1)NC(=O)c1csc(CC[C@H](C(C)C)N(C)C(=O)[C@@H](NC(=O)[C@H]2CCCCN2C)C(C)C)n1 | > 33.3 µM | > 33.3 µM | > 33.3 µM | > 33.3 µM | > 33.3 µM | > 33.3 µM | 0.747 µM | > 8.8 µM | > 33.3 µM | 0.451 µM | 1.26 µM | 0.991 µM | 0.0686 µM | 0.295 µM | 0.14 µM | 0.0981 µM | > 15.2 µM | > 33.3 µM | 0.318 µM | 3.46 µM
CCc1cccc(C)c1NC(=O)c1sc2nc3c(cc2c1N)CCCCC3 | > 100 µM | > 100 µM | > 100 µM | 54 µM | > 100 µM | > 100 µM | 13.8 µM | > 100 µM | 14.1 µM | 5.24 µM | 7.74 µM | 8.37 µM | 2.27 µM | 2.68 µM | 3.31 µM | 2.97 µM | 13.4 µM | > 100 µM | 4.35 µM | 2.36 µM
COc1cc(C#Cc2ccc(=O)oc2C#Cc2ccccc2)cc(OC)c1OC | > 74.5 µM | 12.1 µM | 68.6 µM | > 31.3 µM | > 100 µM | 9.18 µM | 4.77 µM | 7.87 µM | 18.9 µM | 15.2 µM | 5.74 µM | 4.97 µM | 1.84 µM | 4.02 µM | 3.89 µM | 2.02 µM | 4.57 µM | 13 µM | 2.84 µM | 6.39 µM
FC(F)(F)c1nc2nc(Cl)c(Cl)nc2n1CCCN1CCOCC1 | > 100 µM | > 100 µM | > 100 µM | 33.9 µM | > 100 µM | > 100 µM | > 100 µM | > 100 µM | > 100 µM |  |  |  |  |  |  |  |  | > 100 µM |  | 
COC(=O)CCc1c[nH]c2ccc(N(CCCl)CCCl)cc12 | 33.5 µM | 46.1 µM | 52.2 µM | > 100 µM | > 28.6 µM | 16.6 µM | 14.8 µM | > 92.4 µM | > 56.8 µM | 1.93 µM | 5.32 µM | 7.71 µM | 0.416 µM | 0.6 µM | 1.72 µM | 2.39 µM | 4.82 µM | 66 µM | 20.1 µM | 2.3 µM
CC(=O)OCC1OC(n2c(-c3ccc(Cl)cc3)ccc(C#N)c2=S)C(OC(C)=O)C(OC(C)=O)C1OC(C)=O (stereo not given) | 44.9 µM and > 100 µM | > 100 µM | > 100 µM and 93.3 µM | > 100 µM | > 100 µM | > 100 µM | > 100 µM | 47.1 µM and > 100 µM | > 100 µM | 16.4 µM and 47.9 µM |  | > 100 µM and 19.9 µM | > 100 µM and 40.2 µM |  |  | > 66.1 µM and 32.2 µM | 29.4 µM and 62.3 µM | 64.1 µM and > 100 µM | 10.2 µM and 42.9 µM | 
